Columns and labels:
ciGPR84 [1] = target: T1, ciGPR84 (Ctenopharyngodon idella, UniProt A0A8K1PH93); experiment: pGL4.29 (CRE) luciferase reporter assay, inhibition of forskolin-induced cAMP signaling in HEK293T cells transfected with ciGPR84; type: cell-based, grass carp (Ctenopharyngodon idella); details: HEK293T co-transfected with pciGPR84 and pGL4.29, 5 μM forskolin, 6 h treatment; for IC50: read-out: IC50 (half-maximal inhibitory concentration) on cAMP through ciGPR84
Protocol: (§1) Human embryonic kidney cells HEK293T obtained from Beyotime Biotechnology (Shanghai, China) were cultured with Dulbecco’s Modified Eagle Medium (DMEM) containing a 10% fetal bovine serum in an incubator (37 °C and 5% CO2 humidified atmosphere). The cells were plated into 24-well plates and cultured for 24 h before assays. The Countess 3 cell counter (Invitrogen, Waltham, MA, USA) was used for cell counting.
(§2) The functionality of ciGPR84 was assessed using our established method. Specifically, the coding sequence (CDS) of ciGPR84 was subcloned into the pcDNA3.1 (+) vector (Invitrogen, Carlsbad, CA, USA), resulting in the construction of pcDNA3.1-ciGPR84 (pciGPR84). HEK293T cells were co-transfected with pciGPR84 (or pcDNA3.1 empty vector), two luciferase reporter vectors (pGL4.29 and pGL4.33) containing a cAMP response element (CRE) and serum response element (SRE), respectively, and pEGFP-N1 (as an internal control for transfection normalization) in a mixture with polyethyleneimine (PEI) transfection reagent (Fusheng Biotechnology, Shanghai, China). The cells were then incubated in the original medium for 24 h, transferred to a 48-well plate, and grown for an additional 24 h to reach a cell density of 2 × 10^5 cells per well. […] It is important to note that due to the anticipated inhibitory effect of MCFA on the intracellular cAMP, 5 μM forskolin was added to all wells transfected with pGL4.29 to pre-activate the cellular adenylyl cyclase.
(§3) After the treatment, cells were lysed with 1 × passive lysis buffer (Beyotime Biotechnology, Shanghai, China), and a luciferase substrate was added to initiate a glow-generating reaction. The luminescence signals were measured using a Tecan F200 (Tecan, Männedorf, Switzerland) microplate reader to determine the relative luciferase activity in each well. Three independent experiments were performed for each agonist concentration (n = 3), and the data were presented as a mean ± SEM.
(§4) A data analysis was performed using GraphPad Prism 7 software (GraphPad Software, San Diego, CA, USA).

ciGPR84 [2] = target: T1, ciGPR84; experiment: pGL4.33 (SRE) luciferase reporter assay, activation of ERK signaling in HEK293T cells transfected with ciGPR84; type: cell-based, grass carp (Ctenopharyngodon idella); details: HEK293T co-transfected with ciGPR84 and pGL4.33 (SRE-luciferase), 6 h treatment; for EC50: read-out: EC50 for activation of ERK signaling through ciGPR84
Protocol: as §1, §2, §3, §4

mouse GPR84 = system: mouse GPR84; design: method as in PMID 16966319; details: cited from earlier work

T1 sequence (A0A8K1PH93 entry or part of it): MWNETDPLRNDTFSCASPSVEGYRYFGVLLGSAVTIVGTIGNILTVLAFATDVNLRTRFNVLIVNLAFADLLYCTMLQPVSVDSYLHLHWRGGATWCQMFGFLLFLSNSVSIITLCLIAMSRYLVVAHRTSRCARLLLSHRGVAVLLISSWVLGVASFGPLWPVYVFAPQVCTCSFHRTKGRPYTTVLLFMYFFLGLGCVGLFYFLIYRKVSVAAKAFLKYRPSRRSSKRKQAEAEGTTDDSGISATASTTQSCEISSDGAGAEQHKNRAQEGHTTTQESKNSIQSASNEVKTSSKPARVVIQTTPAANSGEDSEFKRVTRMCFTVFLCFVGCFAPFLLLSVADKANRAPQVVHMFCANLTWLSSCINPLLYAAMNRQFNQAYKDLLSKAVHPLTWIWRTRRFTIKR

Which IC50 (ciGPR84 [1]) does the source give for `CCCCCCCCCCC(=O)O` [undecanoic acid] here?
The IC50 was 1490 µM.

And the EC50 (ciGPR84 [2])?
Its EC50 is 13800 µM.

With `CCCCCCCCCC(=O)O` [capric acid] as the compound, how does the EC50 (mouse GPR84) read?
Its EC50 is 4 µM.

With `c1ccc2c(Cc3c[nH]c4ccccc34)c[nH]c2c1` [DIM, diindolylmethane] as the compound, how does the “inhibition of cAMP generation through ciGPR84” value (ciGPR84 [1]; DIM 10^−8 to 10^−3) read?
Its value is “did not lead to the inhibition of cAMP generation”.

And the “activation of ERK signaling through ciGPR84” value (ciGPR84 [2]; DIM 10^−8 to 10^−3)?
Its value is “did not activate the ERK signaling”.

For `CCCCCCCCCCCC(=O)O` [lauric acid], which IC50 (ciGPR84 [1]) is on record?
The IC50 was 301 µM.

And the EC50 (ciGPR84 [2])?
The EC50 was 4250 µM.

And the EC50 (mouse GPR84)?
The EC50 was 9 µM.

Which EC50 (mouse GPR84) does the source give for `CCCCCCCCC(=O)O` [nonanoic acid] here?
The EC50 was 52 µM.

— paper PMC10571743, “Molecular Cloning, Tissue Distribution, and Pharmacological Characterization of GPR84 in Grass Carp (Ctenopharyngodon Idella)” (Animals : an Open Access Journal from MDPI, 2023)
